By Km is commonly meant the substrate concentration at which the rate is half of its maximum.

This note sets out measurements from PMC12846068, “Insights into Transport Function of the Murine Organic Anion-Transporting Polypeptide OATP1B2 by Comparison with Its Rat and Human Orthologues” (Toxics, 2025).

One data set concerns the target T1, mOATP1B2 (Mus musculus, UniProt Q9JJL3).
T1 construct: The full-length mOATP1B2 and rOATP1B2 consist of 689 and 678 amino acids
T1 sequence (Q9JJL3 1-689): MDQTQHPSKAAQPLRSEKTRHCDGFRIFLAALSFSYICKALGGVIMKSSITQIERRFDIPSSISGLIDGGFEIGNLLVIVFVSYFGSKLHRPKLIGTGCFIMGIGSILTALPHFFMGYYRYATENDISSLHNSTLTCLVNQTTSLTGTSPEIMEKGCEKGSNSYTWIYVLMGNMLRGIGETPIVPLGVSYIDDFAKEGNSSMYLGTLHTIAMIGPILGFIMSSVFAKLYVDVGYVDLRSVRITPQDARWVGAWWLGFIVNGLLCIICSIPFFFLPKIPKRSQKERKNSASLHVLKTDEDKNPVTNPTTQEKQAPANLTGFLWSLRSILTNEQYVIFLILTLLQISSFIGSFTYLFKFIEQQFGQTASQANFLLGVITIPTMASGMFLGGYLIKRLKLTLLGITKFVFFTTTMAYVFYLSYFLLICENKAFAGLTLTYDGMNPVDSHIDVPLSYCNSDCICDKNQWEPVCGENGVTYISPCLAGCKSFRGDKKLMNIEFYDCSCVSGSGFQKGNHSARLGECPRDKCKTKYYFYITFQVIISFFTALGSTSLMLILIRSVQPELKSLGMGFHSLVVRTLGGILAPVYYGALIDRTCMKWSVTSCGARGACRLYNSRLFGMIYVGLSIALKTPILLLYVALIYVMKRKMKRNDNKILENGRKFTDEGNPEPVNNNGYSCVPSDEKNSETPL
The data set is described as follows: mOATP1B2-mediated uptake of [3H]-E1S and [3H]-TCA in overexpressing HEK293 cells. The format is cell-based.

In another data set the target is T2, rOATP1B2 (Rattus norvegicus, UniProt Q9QZX8).
T2 construct: The full-length mOATP1B2 and rOATP1B2 consist of 689 and 678 amino acids
T2 sequence (Q9QZX8 1-687): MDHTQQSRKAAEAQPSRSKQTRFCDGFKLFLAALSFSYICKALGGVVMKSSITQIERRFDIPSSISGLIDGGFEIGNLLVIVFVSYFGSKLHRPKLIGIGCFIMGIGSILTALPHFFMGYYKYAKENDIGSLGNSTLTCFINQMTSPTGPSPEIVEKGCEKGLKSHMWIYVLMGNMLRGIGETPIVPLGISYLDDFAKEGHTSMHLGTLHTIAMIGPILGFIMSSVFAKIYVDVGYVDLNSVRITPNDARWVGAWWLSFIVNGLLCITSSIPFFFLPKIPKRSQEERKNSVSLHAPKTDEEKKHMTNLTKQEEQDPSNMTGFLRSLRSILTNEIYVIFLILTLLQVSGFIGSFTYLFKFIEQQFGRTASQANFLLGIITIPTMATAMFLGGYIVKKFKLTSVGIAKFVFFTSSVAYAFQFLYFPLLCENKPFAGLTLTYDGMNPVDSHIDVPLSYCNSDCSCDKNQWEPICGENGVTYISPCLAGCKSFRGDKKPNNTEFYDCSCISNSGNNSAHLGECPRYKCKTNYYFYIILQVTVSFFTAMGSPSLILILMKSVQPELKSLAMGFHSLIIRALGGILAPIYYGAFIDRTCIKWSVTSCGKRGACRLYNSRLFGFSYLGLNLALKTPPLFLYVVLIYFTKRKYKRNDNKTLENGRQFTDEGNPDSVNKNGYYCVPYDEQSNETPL
The data set is described as follows: rOATP1B2-mediated uptake of [3H]-E1S and [3H]-TCA in overexpressing HEK293 cells. Format: cell-based. The conditions noted are these: rOATP1B2, 1 µM substrate; E1S 5 min, TCA 10 min.

The target in another data set is T3, hOATP1B3 (Homo sapiens, UniProt Q9NPD5).
T3 sequence (Q9NPD5 1-702): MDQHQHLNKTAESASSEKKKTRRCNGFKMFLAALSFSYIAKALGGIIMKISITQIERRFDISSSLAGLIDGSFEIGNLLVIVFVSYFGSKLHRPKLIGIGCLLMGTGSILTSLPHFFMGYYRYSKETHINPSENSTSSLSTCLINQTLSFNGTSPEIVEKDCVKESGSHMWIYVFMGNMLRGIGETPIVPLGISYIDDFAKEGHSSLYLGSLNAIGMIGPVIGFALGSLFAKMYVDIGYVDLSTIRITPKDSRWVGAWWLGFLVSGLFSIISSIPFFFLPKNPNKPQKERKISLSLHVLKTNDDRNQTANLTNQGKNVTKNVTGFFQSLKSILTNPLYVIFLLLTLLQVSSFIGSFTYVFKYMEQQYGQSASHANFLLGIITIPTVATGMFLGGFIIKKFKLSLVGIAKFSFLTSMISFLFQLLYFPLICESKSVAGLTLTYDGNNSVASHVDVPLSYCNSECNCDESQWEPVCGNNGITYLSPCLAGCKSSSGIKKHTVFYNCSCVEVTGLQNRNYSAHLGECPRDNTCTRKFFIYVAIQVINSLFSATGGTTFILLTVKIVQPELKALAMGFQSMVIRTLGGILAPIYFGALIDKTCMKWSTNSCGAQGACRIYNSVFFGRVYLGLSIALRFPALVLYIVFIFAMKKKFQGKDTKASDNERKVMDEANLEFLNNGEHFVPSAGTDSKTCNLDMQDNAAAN
The data set is described as follows: hOATP1B3-mediated uptake of [3H]-E1S and [3H]-TCA in transfected HEK293 cells.

Description for hOATP1B3: To perform transporter-mediated uptake, both stably transfected cells and control cells (seeding density 2 × 10^5) were cultured for three days in 24-well plates (coated with 0.1 mg/mL poly-D-lysine hydrobromide). Then, 24 h before the start of the transport experiment, the gene expression of mOapt1b2 and rOATP1B2 was induced by 1 µg/mL tetracycline. At the beginning of each experiment, the cells were washed three times with pre-warmed 0.5 mL HBSS incubation buffer (supplemented with 20 mM HEPES, pH 7.4) and equilibrated for at least 20 min as described previously [27]. After aspirating the incubation buffer, the uptake process was started by adding 200 µL HBSS incubation buffer containing radio-labeled and unlabeled substances to each well and incubated at 37 °C for an appropriate time. The uptake was stopped by aspirating the reaction mixture and washing the cells 3 times with 0.4 mL ice-cold PBS buffer. After cell lysis with 0.6 mL of 1N NaOH overnight, the whole content of each well (0.6 mL) was transferred to a 6 mL scintillation vial (Sarstedt) containing 2.5 mL scintillation liquid (Rotiszint®eco plus, Carl Roth). The ^3H content was measured in a scintillation counter (Perkin Elmer TRICarb 2810 or HIDEX 600SL).
To verify the results for the human transporters, both substrates were tested at a concentration of 0.01 µM. All experiments were conducted at least on two separate days as triplicates.
The absolute amount (pmol) of the radio-labeled probe substrate uptake was calculated and related to the determined protein values as well as the incubation time. The transporter-mediated uptake rate (net uptake) was obtained by subtracting the uptake rate in control (vector only)-transfected HEK293 cells from the uptake rate in transporter-transfected cells. To calculate the Km of the respective substrate, the transporter-mediated net uptake (pmol/mg protein/min) was plotted against the substrate concentrations in SigmaPlot 13. Weighted nonlinear regression was used for curve fitting (ligand binding with one site saturation).
Description for mOATP1B2: (§1) To perform transporter-mediated uptake, both stably transfected cells and control cells (seeding density 2 × 10^5) were cultured for three days in 24-well plates (coated with 0.1 mg/mL poly-D-lysine hydrobromide). Then, 24 h before the start of the transport experiment, the gene expression of mOapt1b2 and rOATP1B2 was induced by 1 µg/mL tetracycline. At the beginning of each experiment, the cells were washed three times with pre-warmed 0.5 mL HBSS incubation buffer (supplemented with 20 mM HEPES, pH 7.4) and equilibrated for at least 20 min as described previously [27]. After aspirating the incubation buffer, the uptake process was started by adding 200 µL HBSS incubation buffer containing radio-labeled and unlabeled substances to each well and incubated at 37 °C for an appropriate time. The uptake was stopped by aspirating the reaction mixture and washing the cells 3 times with 0.4 mL ice-cold PBS buffer. After cell lysis with 0.6 mL of 1N NaOH overnight, the whole content of each well (0.6 mL) was transferred to a 6 mL scintillation vial (Sarstedt) containing 2.5 mL scintillation liquid (Rotiszint®eco plus, Carl Roth). The ^3H content was measured in a scintillation counter (Perkin Elmer TRICarb 2810 or HIDEX 600SL). […]
(§2) The absolute amount (pmol) of the radio-labeled probe substrate uptake was calculated and related to the determined protein values as well as the incubation time. […]
Description for rOATP1B2: as §1, §2

Regarding `C[C@H](CCC(=O)NCCS(=O)(=O)O)[C@H]1CC[C@H]2[C@@H]3[C@H](O)C[C@@H]4C[C@H](O)CC[C@]4(C)[C@H]3C[C@H](O)[C@]12C` [TCA, taurocholate], the “uptake compared to vector-transfected control cells” value was “more than 100 fold” on mOATP1B2 (mOATP1B2, 1 µM substrate, E1S 5 min, TCA 10 min); more than 70 fold at rOATP1B2; 2.7 fold on hOATP1B3 (hOATP1B3, 0.01 µM substrate). For the same molecule, on mOATP1B2 (ratio of Km values mOATP1B2/rOATP1B2), the “affinity of mOATP1B2 lower than that of rOATP1B2” value stood at 4.6 fold. Also, the “uptake over control cells / substrate status” value on hOATP1B3 (hOATP1B3, substrate concentration not stated at the place) is 2-3 fold. The Km at 10 min at hOATP1B3 (human, pH 7.4) stood at 21 ± 8 µM.
